{
  "source": "patent US9702824B2",
  "about": "“pH sensors” (PROMEGA CORPORATION, priority 2012, dated 2017)",
  "key": {"[1]": {"test": "Fluorescence excitation and emission spectra of pH sensor agents", "assay_type": "physicochemical", "protocol": "Experiments were conducted during development of embodiments of the present invention to determine the fluorescence characteristics of exemplary pH sensor agents PBI-4453 and PBI-4479 (SEE FIG. 1). Fluorescence excitation and emission intensities were measured at a range of wavelengths (SEE FIG. 2). […] Fluorescence detection was performed at a range of pH values (SEE FIG. 3)."}, "[2]": {"target": "T1, IL6-HT7-DOR1 (δ-opioid receptor) in U2-OS cells (Homo sapiens, UniProt P41143)", "T1 construct": "expressed in transfected cells; host or cells: U2-OS", "T1 sequence (P41143 with tags, fused parts or gaps)": "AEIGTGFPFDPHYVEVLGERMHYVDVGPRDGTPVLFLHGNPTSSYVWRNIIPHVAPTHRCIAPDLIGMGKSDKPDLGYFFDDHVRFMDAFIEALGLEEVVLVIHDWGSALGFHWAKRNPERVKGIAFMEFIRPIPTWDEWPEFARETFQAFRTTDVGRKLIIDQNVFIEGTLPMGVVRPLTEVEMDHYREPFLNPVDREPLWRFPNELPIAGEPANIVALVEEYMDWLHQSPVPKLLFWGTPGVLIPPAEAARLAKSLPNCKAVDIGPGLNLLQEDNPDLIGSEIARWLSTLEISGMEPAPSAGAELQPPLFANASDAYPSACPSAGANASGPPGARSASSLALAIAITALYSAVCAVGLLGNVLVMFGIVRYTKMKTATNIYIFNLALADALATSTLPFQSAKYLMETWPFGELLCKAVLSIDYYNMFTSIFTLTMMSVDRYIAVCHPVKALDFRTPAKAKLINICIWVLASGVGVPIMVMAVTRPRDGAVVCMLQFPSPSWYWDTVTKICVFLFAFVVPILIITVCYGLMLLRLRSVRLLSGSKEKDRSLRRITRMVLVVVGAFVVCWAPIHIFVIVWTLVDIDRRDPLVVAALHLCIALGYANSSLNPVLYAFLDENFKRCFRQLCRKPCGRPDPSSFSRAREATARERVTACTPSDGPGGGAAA", "test": "Receptor internalization detection by imaging", "assay_type": "cell-based", "settings": "1 uM sensor, stimulated with 1 uM SNC80, imaged for 1 hour", "protocol": "(§1) Experiments were conducted during development of embodiments of the present invention to detect and monitor internalization/endocytosis. U2-OS cells expressing (either transiently or stably) a HaloTag (HT7)-Receptor fusion protein containing an IL6 signal sequence were used. The following HT7-receptor fusion proteins were expressed in the U2-OS cells: IL6-HT7-β2AR (β2 adrenergic receptor; NM_000024.3), IL6-HT7-EDG1 ([…]; NM_001400), IL6-HT7-DOR1 (δ-opioid receptor; NM 000911) and IL6-HT7-EGFR (epidermal growth factor receptor; AB528482). The cells were plated at 2×10^5 cells/mL in complete media into wells. The cells were then incubated overnight at 37° C., 5% CO2. The media was then replaced with 200 ul McCoy's 5A media with 0.5% charcoal-stripped FBS (Hyclone) and incubated for about 1 hour at 37° C., 5% CO2. The cells were then labeled with 1 uM pH sensor PBI-4479 and incubated for 10 minutes at 37° C., 5% CO2. The cells were then washed 3 times with 200 ul complete media to remove any unbound sensor. The cells were then stimulated with the respective agonist (1 uM Isoproterenol for IL6-HT7-β2AR, 1 uM S1P for IL6-HT7-EDG1, 1 uM SNC80 for IL6-HT7-DOR1, and 1 ng/mL rhEGF for IL6-HT7-EGFR) and imaged every 5 minutes for 1 hour on an Olympus FV500."}, "[3]": {"tested_on": "IL6-HT7-EGFR (epidermal growth factor receptor) in U2-OS cells", "test": "Receptor internalization detection by imaging", "assay_type": "cell-based", "settings": "1 uM sensor, stimulated with 1 ng/mL rhEGF, imaged for 1 hour", "protocol": "as §1"}, "[4]": {"target": "T2, IL6-HT7-β2AR (β2 adrenergic receptor) in U2-OS cells (Homo sapiens, UniProt P07550)", "T2 construct": "expressed in transfected cells; host or cells: U2-OS", "test": "Receptor internalization detection by imaging", "assay_type": "cell-based", "settings": "1 uM sensor, stimulated with 1 uM Isoproterenol, imaged for 1 hour", "protocol": "as §1"}, "[5]": {"target": "T3, IL6-HT7-EDG1 (endothelial differential growth gene 1) in U2-OS cells (UniProt P0A3G2+P21453, A155T/A167V/A172T/A224E/C128F/C176G/D78G/E160K/E257K/H272N/K175M/K195N/L47V/L88M/N227D/S2A/S58T/T264A/Y273L/Y87F)", "T3 construct": "expressed in transfected cells; host or cells: U2-OS", "T3 sequence (P0A3G2+P21453 fused with the stated changes)": "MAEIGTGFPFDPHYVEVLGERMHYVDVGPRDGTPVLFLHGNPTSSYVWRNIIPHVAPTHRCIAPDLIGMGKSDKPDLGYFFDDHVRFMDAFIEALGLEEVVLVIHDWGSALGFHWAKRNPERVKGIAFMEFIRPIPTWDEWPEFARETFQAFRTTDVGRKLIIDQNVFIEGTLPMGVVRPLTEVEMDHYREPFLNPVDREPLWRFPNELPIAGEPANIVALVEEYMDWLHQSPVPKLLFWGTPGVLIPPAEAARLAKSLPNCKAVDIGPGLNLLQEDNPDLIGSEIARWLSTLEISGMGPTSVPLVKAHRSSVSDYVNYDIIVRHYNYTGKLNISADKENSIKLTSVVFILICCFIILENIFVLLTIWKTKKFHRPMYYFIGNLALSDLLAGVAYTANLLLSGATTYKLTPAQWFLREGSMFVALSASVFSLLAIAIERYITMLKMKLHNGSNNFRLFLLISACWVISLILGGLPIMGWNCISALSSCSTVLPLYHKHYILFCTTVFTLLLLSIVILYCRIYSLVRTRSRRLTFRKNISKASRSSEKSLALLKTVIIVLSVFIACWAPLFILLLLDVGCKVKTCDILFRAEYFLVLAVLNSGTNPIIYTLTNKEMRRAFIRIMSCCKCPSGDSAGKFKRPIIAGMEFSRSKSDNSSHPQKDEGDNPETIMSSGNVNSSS", "test": "Receptor internalization detection by imaging", "assay_type": "cell-based", "settings": "1 uM sensor, stimulated with 1 uM S1P, imaged for 1 hour", "protocol": "as §1"}, "[6]": {"tested_on": "U2-OS cells stably expressing HaloTag-NLS", "test": "pH sensor permeability, pulse and chase with HaloTag Oregon Green (Example 12)", "settings": "2 uM pulse for 10 minutes"}, "[7]": {"test": "Fluorescence intensity loss and recovery when titrated with base and acid", "assay_type": "physicochemical", "settings": "titrated from pH 4 to approximately 8 with NaOH and back to approximately 4 with HCl", "protocol": "This example was performed to determine if fluorescence intensity of a pH sensor of the present invention, PBI-4479, which is mostly fluorescent at pH 4, could be recovered when titrated to basic pH, then back to acidic pH. In order to limit disruption of the concentration of the sensor, the experiment was run in a large volume, and the pH was adjusted dropwise with a concentrated base, then with an acid. The product was first dissolved in DMSO to create a concentrated stock, and then a small amount was diluted into 100 mL 10 mM sodium phosphate buffer pH 4.0. Fluorescence was recorded on a HoribaJobinYvon Fluorolog throughout the experiment using an excitation of 528 nm, and emission at 557 nm maintaining a slit width of 2 nm. Excitation and emission maxima were also determined for each aliquot in the event the fluorescence properties of the molecule changed. pH was monitored using a calibrated pH probe (Denver Instruments Model 215 pH meter). 1 mL aliquots were removed when the solution increased to approximately one pH unit, and fluorescence was measured using the parameters stated above. The solution was first titrated dropwise with 2N sodium hydroxide while stirring, until a pH of approximately 8 was attained. The solution was then titrated down with 4N hydrochloric acid until a pH of approximately 4 was attained."}},
  "data": [
    {"smiles": "O=C(NCCOCCOCCOCCOCCOCCOCCCCCCCl)c1ccc(C(=O)[O-])c(-c2c3ccc(=[N+]4CCN(CCCCS(=O)(=O)O)CC4)cc-3oc3cc(N4CCN(CCCCS(=O)(=O)O)CC4)ccc23)c1", "note": "[PBI-4479]", "values": [
      {"measurement": "emission maximum", "setting": "[1]", "value": 562, "unit": "nm"},
      {"measurement": "excitation maximum", "setting": "[1]", "value": 534, "unit": "nm"},
      {"measurement": "detection of receptor internalization", "setting": "[2]", "value": "detection of HaloTag-DOR1 internalization"},
      {"measurement": "detection of receptor internalization", "setting": "[3]", "value": "detection of HaloTag-EGFR internalization"},
      {"measurement": "detection of receptor internalization", "setting": "[4]", "value": "detection of HaloTag-B2AR internalization"},
      {"measurement": "detection of receptor internalization", "setting": "[5]", "value": "detection of HaloTag-EDG1 internalization"},
      {"measurement": "cell permeability", "setting": "[6]", "value": "non-permeability"},
      {"measurement": "reversibility of fluorescence intensity", "setting": "[7]", "value": "fluorescent intensity loss and recovery"}
    ]}
  ]
}
